Assay results: US4296032A (priority 1979, dated 1981)

Columns and labels:
Format in all cases: cell-based
Klebsiella aerogenes E70 = test: MIC of ampicillin in the presence of the inhibitor, Klebsiella aerogenes E70
Protocol: (§1) The MIC of ampicillin was determined in the presence of the pivaloyloxymethyl ester of 6-β-bromopenicillanic acid (inhibitor).

Proteus sp. C889 = test: MIC of ampicillin in the presence of the inhibitor, Proteus sp. C889
Protocol: as §1

E. coli JT. 39 = test: MIC of ampicillin in the presence of the inhibitor, E. coli JT. 39
Protocol: as §1

Staph. aureus Russell = test: MIC of ampicillin in the presence of the inhibitor, Staph. aureus Russell
Protocol: as §1

For CC(C)(C)C(=O)OCOC(=O)[C@@H]1N2C(=O)[C@@H](Br)[C@H]2SC1(C)C [pivaloyloxymethyl 6β-bromopenicillanate], which “MIC of Ampicillin” value (Klebsiella aerogenes E70; inhibitor conc. 5 μg/ml) is on record?
Its value is 12.5 µg/mL.

And the “MIC of Ampicillin” value (Klebsiella aerogenes E70; inhibitor conc. 20 μg/ml)?
The value was 6.2 µg/mL.

And the “MIC of Ampicillin” value (Proteus sp. C889; inhibitor conc. 5 μg/ml)?
Its value is 31 µg/mL.

And the “MIC of Ampicillin” value (Proteus sp. C889; inhibitor conc. 20 μg/ml)?
Its value is 8 µg/mL.

And the “MIC of Ampicillin” value (E. coli JT. 39; inhibitor conc. 5 μg/ml)?
The value was 4 µg/mL.

And the “MIC of Ampicillin” value (E. coli JT. 39; inhibitor conc. 20 μg/ml)?
The value was 2 µg/mL.

And the “MIC of Ampicillin” value (Staph. aureus Russell; inhibitor conc. 5 μg/ml)?
The value was 3.1 µg/mL.

What about the “MIC of Ampicillin” value (Staph. aureus Russell; inhibitor conc. 20 μg/ml) of the same compound?
The value was 0.78 µg/mL.
